Data taken from patent US11840686B2, “Modulation of prekallikrein (PKK) expression” (Ionis Pharmaceuticals, Inc., priority 2013, dated 2023).
Strand notation (5' to 3'): a small letter for the sugar, then the base; units joined by * are phosphorothioate-linked, units joined directly phosphodiester-linked; [ ] holds rarer units or linkages, { } end groups; capitals alone tell only the bases. e = 2'-O-(2-methoxyethyl) (MOE); [5mC] = 5-methylcytosine; d = 2'-deoxy (DNA)

What was measured:
[1] = tested on: human PKK mRNA; test: Dose-dependent antisense inhibition of human PKK in HepaRG cells, 0.19-5.00 uM (Example 5); format: cell-based
Experimental: Cells were plated at a density of 20,000 cells per well and transfected using electroporation with 0.19 μM, 0.56 μM, 1.67 μM, and 5.00 μM concentrations of antisense oligonucleotide. After a treatment period of approximately 16 hours, RNA was isolated from the cells and PKK mRNA levels were measured by quantitative real-time PCR. Human PKK primer probe set RTS3454 was used to measure mRNA levels. PKK mRNA levels were adjusted according to total RNA content, as measured by RIBOGREEN®. The antisense oligonucleotides were tested in a series of experiments that had similar culture conditions.
The half maximal inhibitory concentration (IC50) of each oligonucleotide is also presented.

[2] = tested on: human PKK mRNA; test: Antisense inhibition of human PKK mRNA in HepaRG cells, 5,000 nM (Example 2); format: cell-based
In short: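 Percent inhibition of PKK mRNA is reported relative to untreated cells, after adjustment for total RNA by RIBOGREEN. Gapmers of 16–20 nucleosides with 2′-MOE wings were delivered at 5,000 nM by electroporation into HepaRG cells and left for roughly 24 hours before RNA isolation.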

[3] = HepaRG cells, electroporation, approximately 16 hours, Table 40
[4] = 4 point dose response, HepaRG cells, Table 40
[5] = HepaRG cells, electroporation, approximately 16 hours, Table 38
[6] = 4 point dose response, HepaRG cells, Table 38
[7] = HepaRG cells, electroporation, 5,000 nM antisense oligonucleotide, approx. 24 hours, primer probe set RTS3454, relative to untreated control cells, Table 12
[8] = HepaRG cells, electroporation, approximately 16 hours, Table 37
[9] = 4 point dose response, HepaRG cells, Table 37
[10] = Table 7, HepaRG cells, electroporation with 5,000 nM antisense oligonucleotide, approx. 24 hours, PKK mRNA by RT-PCR (RTS3454), relative to untreated control cells
[11] = HepaRG cells, 5,000 nM antisense oligonucleotide, 5-10-5 gapmers, Table 16
[12] = HepaRG cells, electroporation, approximately 16 hours, Table 39
[13] = 4 point dose response, HepaRG cells, Table 39
[14] = HepaRG cells, electroporation with 5,000 nM antisense oligonucleotide, approximately 24 hours, PKK mRNA by RT-PCR (RTS3454), relative to untreated control cells, Table 5 experiment
[15] = HepaRG cells, 5,000 nM antisense oligonucleotide, 5-10-5 gapmers, Table 17
[16] = Table 34, HepaRG, electroporation, ~16 h
[17] = HepaRG cells, electroporation, approximately 16 hours, Table 35

547493 (antisense eT*e[5mC]*eT*eG*eA*dG*d[5mC]*dT*dT*dT*dT*d[5mC]*d[5mC]*dA*dT*e[5mC]*eA*e[5mC]*eT*eG) [compound 547493]
percent inhibition of PKK at 0.19 μM [1, 3]: 0%
percent inhibition of PKK at 0.56 μM [1, 3]: 26%
percent inhibition of PKK at 1.67 μM [1, 3]: 64%
percent inhibition of PKK at 5.00 μM [1, 3]: 77%
IC50 [1, 4]: 1300 nM
% inhibition ([2]; HepaRG cells, electroporation, 5,000 nM antisense oligonucleotide, approx. 24 hours, primer probe set RTS3454, relative to untreated control cells, Table 11): 72%

546412 (eG*eG*e[5mC]*eT*eT*d[5mC]*dA*dA*dT*dA*dT*dT*dG*dA*d[5mC]*eT*eT*eT*eG*eG; antisense) [compound 546412]
percent inhibition of PKK at 0.19 μM [1, 5]: 0%
percent inhibition of PKK at 0.56 μM [1, 5]: 1%
percent inhibition of PKK at 1.67 μM [1, 5]: 61%
percent inhibition of PKK at 5.00 μM [1, 5]: 62%
IC50 [1, 6]: 2300 nM
% inhibition [2, 7]: 84%

546214 (antisense eG*eA*eG*eA*eA*d[5mC]*d[5mC]*d[5mC]*dT*dG*dG*d[5mC]*dA*dA*d[5mC]*eA*eT*e[5mC]*e[5mC]*eA) [compound 546214]
percent inhibition of PKK at 0.19 μM [1, 8]: 0%
percent inhibition of PKK at 0.56 μM [1, 8]: 0%
percent inhibition of PKK at 1.67 μM [1, 8]: 68%
percent inhibition of PKK at 5.00 μM [1, 8]: 85%
IC50 [1, 9]: 1300 nM
% inhibition [2, 10]: 88%

547712 (antisense e[5mC]*e[5mC]*e[5mC]*e[5mC]*eA*dT*dG*dG*dT*dA*d[5mC]*d[5mC]*dA*dA*dA*eG*e[5mC]*e[5mC]*eA*eT) [compound 547712]
percent inhibition of PKK at 0.19 μM [1, 3]: 0%
percent inhibition of PKK at 0.56 μM [1, 3]: 5%
percent inhibition of PKK at 1.67 μM [1, 3]: 21%
percent inhibition of PKK at 5.00 μM [1, 3]: 62%
IC50 [1, 4]: 3800 nM
% inhibition [2, 11]: 79%

546198 (antisense eT*e[5mC]*eT*eT*e[5mC]*dA*dA*d[5mC]*dA*d[5mC]*dT*dG*d[5mC]*dT*dA*eA*e[5mC]*e[5mC]*eT*eT) [compound 546198]
percent inhibition of PKK at 0.19 μM [1, 5]: 7%
percent inhibition of PKK at 0.56 μM [1, 5]: 3%
percent inhibition of PKK at 1.67 μM [1, 5]: 45%
percent inhibition of PKK at 5.00 μM [1, 5]: 92%
IC50 [1, 6]: 1300 nM
% inhibition ([2]; HepaRG cells, electroporation with 5,000 nM antisense oligonucleotide, approximately 24 hours, PKK mRNA by RT-PCR (RTS3454), relative to untreated control cells, Table 6 experiment): 85%

546410 (eG*eA*e[5mC]*eT*eT*dT*dG*dG*dG*dT*dT*dT*d[5mC]*dT*dG*e[5mC]*e[5mC]*eA*eA*e[5mC]; antisense) [compound 546410]
percent inhibition of PKK at 0.19 μM [1, 5]: 13%
percent inhibition of PKK at 0.56 μM [1, 5]: 43%
percent inhibition of PKK at 1.67 μM [1, 5]: 52%
percent inhibition of PKK at 5.00 μM [1, 5]: 75%
IC50 [1, 6]: 1200 nM
% inhibition [2, 7]: 83%

547275 (antisense eT*eT*eG*eG*eA*dG*dG*dT*dG*dA*dG*dT*d[5mC]*dT*d[5mC]*eT*eT*eG*eT*e[5mC]) [compound 547275]
percent inhibition of PKK at 0.19 μM [1, 12]: 34%
percent inhibition of PKK at 0.56 μM [1, 12]: 66%
percent inhibition of PKK at 1.67 μM [1, 12]: 82%
percent inhibition of PKK at 5.00 μM [1, 12]: 95%
IC50 [1, 13]: 300 nM
percent inhibition of PKK mRNA, 0.19 μM ([1]; HepaRG cells, 0.19 μM antisense oligonucleotide): 56%
percent inhibition of PKK mRNA, 0.56 μM ([1]; HepaRG cells, 0.56 μM antisense oligonucleotide): 16%
percent inhibition of PKK mRNA, 1.67 μM ([1]; HepaRG cells, 1.67 μM antisense oligonucleotide): 80%
percent inhibition of PKK mRNA, 5.00 μM ([1]; HepaRG cells, 5.00 μM antisense oligonucleotide): 86%
IC50 ([1]; HepaRG cells, 0.19-5.00 μM): 1200 nM
% inhibition [2, 14]: 87%

547288 (antisense e[5mC]*eA*eT*eA*eG*dA*dG*dT*dT*dG*dA*dG*dT*d[5mC]*dA*eG*eA*e[5mC]*eA*eT) [compound 547288]
percent inhibition of PKK at 0.19 μM [1, 3]: 0%
percent inhibition of PKK at 0.56 μM [1, 3]: 0%
percent inhibition of PKK at 1.67 μM [1, 3]: 0%
percent inhibition of PKK at 5.00 μM [1, 3]: 38%
IC50 [1, 4]: > 5000 nM
% inhibition [2, 14]: 80%

547019 (eG*eA*eT*e[5mC]*eG*dG*dT*dG*dG*dT*dG*dG*dG*dA*dT*eT*eG*eG*eT*e[5mC]; antisense) [compound 547019]
percent inhibition of PKK at 0.19 μM [1, 3]: 0%
percent inhibition of PKK at 0.56 μM [1, 3]: 6%
percent inhibition of PKK at 1.67 μM [1, 3]: 54%
percent inhibition of PKK at 5.00 μM [1, 3]: 86%
IC50 [1, 4]: 1600 nM
% inhibition [2, 15]: 83%

546158 (e[5mC]*eT*eT*eG*eG*dG*dT*dG*dG*dA*dA*dT*dG*dT*dG*e[5mC]*eA*e[5mC]*e[5mC]*eT; antisense) [compound 546158]
percent inhibition of PKK at 0.19 μM [1, 16]: 5%
percent inhibition of PKK at 0.56 μM [1, 16]: 45%
percent inhibition of PKK at 1.67 μM [1, 16]: 79%
percent inhibition of PKK at 5.00 μM [1, 16]: 83%
IC50 ([1]; Table 34, PKK mRNA, HepaRG, electroporation, ~16 h): 700 nM
% inhibition [2, 14]: 95%

547366 (eG*eG*eA*eG*eT*dG*dA*dG*dA*dA*d[5mC]*d[5mC]*d[5mC]*dT*dG*eG*e[5mC]*eA*eA*e[5mC]; antisense) [compound 547366]
percent inhibition of PKK at 0.19 μM [1, 12]: 0%
percent inhibition of PKK at 0.56 μM [1, 12]: 45%
percent inhibition of PKK at 1.67 μM [1, 12]: 68%
percent inhibition of PKK at 5.00 μM [1, 12]: 91%
IC50 [1, 13]: 1200 nM
% inhibition [2, 10]: 86%

546980 (eA*eG*e[5mC]*e[5mC]*e[5mC]*dT*d[5mC]*dA*dA*dT*dT*dG*dT*dT*dG*e[5mC]*eT*eG*eG*eT; antisense) [compound 546980]
percent inhibition of PKK at 0.19 μM [1, 3]: 0%
percent inhibition of PKK at 0.56 μM [1, 3]: 18%
percent inhibition of PKK at 1.67 μM [1, 3]: 29%
percent inhibition of PKK at 5.00 μM [1, 3]: 80%
IC50 [1, 4]: 2200 nM
% inhibition [2, 11]: 79%

547483 (antisense eT*e[5mC]*e[5mC]*e[5mC]*e[5mC]*d[5mC]*dT*dT*d[5mC]*dT*dT*dT*dA*dT*dA*eG*e[5mC]*e[5mC]*eA*eG) [compound 547483]
percent inhibition of PKK at 0.19 μM [1, 8]: 0%
percent inhibition of PKK at 0.56 μM [1, 8]: 9%
percent inhibition of PKK at 1.67 μM [1, 8]: 49%
percent inhibition of PKK at 5.00 μM [1, 8]: 71%
IC50 [1, 9]: 2100 nM
% inhibition ([2]; Table 9 experiment, HepaRG cells, 20,000 cells per well, electroporation with 5,000 nM antisense oligonucleotide, approx. 24 hours, PKK mRNA by RT-PCR (RTS3454), relative to untreated control cells): 71%
% inhibition ([2]; Table 10 experiment, HepaRG cells, 20,000 cells per well, electroporation with 5,000 nM antisense oligonucleotide, approx. 24 hours, PKK mRNA by RT-PCR (RTS3454), relative to untreated control cells): 77%

547780 (antisense e[5mC]*e[5mC]*e[5mC]*e[5mC]*eT*d[5mC]*dT*dT*dA*dA*dA*dT*dA*dG*d[5mC]*eA*e[5mC]*eA*eT*eG) [compound 547780]
percent inhibition of PKK at 0.19 μM [1, 3]: 0%
percent inhibition of PKK at 0.56 μM [1, 3]: 10%
percent inhibition of PKK at 1.67 μM [1, 3]: 36%
percent inhibition of PKK at 5.00 μM [1, 3]: 55%
IC50 [1, 4]: 3900 nM
% inhibition [2, 15]: 67%

546967 (e[5mC]*eA*e[5mC]*e[5mC]*eG*d[5mC]*dG*d[5mC]*dG*dA*dA*dT*dG*d[5mC]*d[5mC]*eT*eG*e[5mC]*e[5mC]*eT; antisense) [compound 546967]
percent inhibition of PKK at 0.19 μM [1, 17]: 20%
percent inhibition of PKK at 0.56 μM [1, 17]: 39%
percent inhibition of PKK at 1.67 μM [1, 17]: 76%
percent inhibition of PKK at 5.00 μM [1, 17]: 71%
percent inhibition of PKK at 5.00 μM ([1]; HepaRG cells, electroporation, approximately 16 hours, Table 41): 92%
percent inhibition of PKK at 0.19 0μM ([1]; 0.19 0μM, HepaRG cells, electroporation, approximately 16 hours, Table 41): 22%
percent inhibition of PKK at 0.56 0μM ([1]; 0.56 0μM, HepaRG cells, electroporation, approximately 16 hours, Table 41): 45%
percent inhibition of PKK at 1.67 1μM ([1]; 1.67 1μM, HepaRG cells, electroporation, approximately 16 hours, Table 41): 74%
IC50 ([1]; 4 point dose response, HepaRG cells, Table 35): 700 nM
IC50 ([1]; 4 point dose response, HepaRG cells, Table 41): 700 nM
% inhibition [2, 11]: 93%
